Assay results reported in US9497970B2, “Pesticide compounds” (priority 2013, dated 2016).

Tests used:
Assay type in all cases: in vivo
[1] = tested on: Diamond Back Moth (Plutella xylostella); assay: B.1 Diamond Back Moth (Plutella xylostella), cabbage leaf dip; settings: foliar, 500 ppm, 3rd instar larvae on dipped cabbage leaves, 72 hours after treatment, in comparison with untreated controls, read-out: mortality
Method in brief: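 Cabbage leaves dipped in compound in 1:1 water:acetone with 0.01% Kinetic HV surfactant, air-dried, then infested with ten 3rd-instar larvae on moist filter paper. Mortality scored at 72 h after treatment; feeding damage rated on a 0-100% scale.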

[2] = tested on: Boll Weevil (Anthonomus grandis); assay: B.3 Boll Weevil (Anthonomus grandis), microtiter plate insect diet; settings: 120 h, 800 ppm, sprayed onto insect diet, 5 days, in comparison with untreated controls, read-out: mortality (egg and larval)
Method in brief: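 Compounds in 25% DMSO/water sprayed at several concentrations onto insect diet in microtiter wells holding 5–10 A. grandis eggs, two replicates. Plates kept 5 days at about 25±1 °C and 75±5% RH. Egg and larval mortality scored visually.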

[3] = tested on: Silverleaf Whitefly (Bemisia argentifoli); assay: B.5 Silverleaf Whitefly (Bemisia argentifoli), sprayed cotton plants; settings: 72 h, whitefly adults on sprayed cotton plants, 3 days after treatment, in comparison with untreated controls
Experimental: B.5 Silverleaf Whitefly (Bemisia argentifoli)
(§1) The active compounds were formulated by a Tecan liquid handler in 100% cyclohexanone as a 10,000 ppm solution supplied in tubes. The 10,000 ppm solution was serially diluted in 100% cyclohexanone to make interim solutions. These served as stock solutions for which final dilutions were made by the Tecan in 50% acetone:50% water (v/v) into 5 or 10 ml glass vials. A nonionic surfactant (Kinetic®) was included in the solution at a volume of 0.01% (v/v). The vials were then inserted into an automated electrostatic sprayer equipped with an atomizing nozzle for application to plants/insects.
Cotton plants at the cotyledon stage (one plant per pot) were sprayed by an automated electrostatic plant sprayer equipped with an atomizing spray nozzle. The plants were dried in the sprayer fume hood and then removed from the sprayer. Each pot was placed into a plastic cup and about 10 to 12 whitefly adults (approximately 3-5 days old) were introduced. The insects were collected using an aspirator and a nontoxic Tygon® tubing connected to a barrier pipette tip. The tip, containing the collected insects, was then gently inserted into the soil containing the treated plant, allowing insects to crawl out of the tip to reach the foliage for feeding. Cups were covered with a reusable screened lid. Test plants were maintained in a growth room at about 25° C. and about 20-40% relative humidity for 3 days, avoiding direct exposure to fluorescent light (24 hour photoperiod) to prevent trapping of heat inside the cup. Mortality was assessed 3 days after treatment, compared to untreated control plants.

[4] = tested on: Mediterranean Fruitfly (Ceratitis capitata); assay: B.6 Mediterranean Fruitfly (Ceratitis capitata), microtiter plate insect diet; settings: 120 h, 800 ppm, sprayed onto insect diet, 5 days, in comparison with untreated controls, read-out: mortality (egg and larval)
Method in brief: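 Insect diet with 50-80 C. capitata eggs sprayed with compounds formulated in 75% water/25% DMSO, at different concentrations, two replications. Incubation at about 28±1° C and 80±5% relative humidity for 5 days, then egg and larval mortality assessed visually.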

[5] = tested on: Tobacco Budworm (Heliothis virescens); assay: B.7 Tobacco Budworm (Heliothis virescens) I, microtiter plate insect diet; settings: 120 h, 800 ppm, sprayed onto insect diet, 5 days, in comparison with untreated controls, read-out: mortality (egg and larval)
Method in brief: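 96-well plates with insect diet and 15-25 H. virescens eggs; compounds in 75% water/25% DMSO sprayed onto diet at several concentrations, two replicates. Plates held at about 28±1° C. and 80±5% relative humidity for 5 days, then egg and larval mortality scored visually.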

[6] = tested on: Southern Armyworm (Spodoptera eridania), 2nd Instar Larvae; assay: B.10 Southern Armyworm (Spodoptera eridania), 2nd Instar Larvae, sprayed lima bean plants; settings: 96 h, 300 ppm, larvae on sprayed lima bean plants, 4 days after treatment, in comparison with untreated controls, read-out: mortality
Experimental: B.10 Southern Armyworm (Spodoptera eridania), 2nd Instar Larvae
as §1
Lima bean plants (variety Sieva) were grown 2 plants to a pot and selected for treatment at the 1st true leaf stage. Test solutions were sprayed onto the foliage by an automated electrostatic plant sprayer equipped with an atomizing spray nozzle. The plants were dried in the sprayer fume hood and then removed from the sprayer. Each pot was placed into perforated plastic bags with a zip closure. About 10 to 11 armyworm larvae were placed into the bag and the bags zipped closed. Test plants were maintained in a growth room at about 25° C. and about 20-40% relative humidity for 4 days, avoiding direct exposure to fluorescent light (24 hour photoperiod) to prevent trapping of heat inside the bags. Mortality and reduced feeding were assessed 4 days after treatment, compared to untreated control plants.

[7] = tested on: Yellow Fever Mosquito (Aedes aegypti); assay: whole plant or invertebrate; settings: 48 h, freshly hatched larvae in tap water, 2 days, in comparison with untreated controls, read-out: mortality (larval)
Method in brief: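 Freshly hatched A. aegypti larvae, 5–15 per well, were held in 200 μl tap water. Compounds formulated in 75:25 water:DMSO were sprayed at various concentrations, 2.5 μl per well by micro-atomizer, in two replicates.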

[8] = tested on: Orchid thrips (dichromothrips corbetti); assay: B.12 Orchid thrips (dichromothrips corbetti), floral-immersion technique; settings: adult thrips on dipped orchid petals, 72 hours after treatment, in comparison with untreated controls
Method in brief: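 Whole orchid flower petals were dipped in compound in 1:1 acetone:water with 0.01% v/v Kinetic HV, dried, and enclosed with about 20 adult thrips. They were held under continuous light at about 28° C. Live thrips were counted and percent mortality recorded at 72 hours.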

[9] = tested on: Green Peach Aphid (Myzus persicae); assay: B.9 Green Peach Aphid (Myzus persicae), sprayed bell pepper plants; settings: 120 h, infested bell pepper plants sprayed, after 5 days, in comparison with untreated controls
Experimental: B.9 Green Peach Aphid (Myzus persicae)
as §1, with “in 100% cyclohexa none as a” for “in 100% cyclohexanone as a”
Bell pepper plants at the first true-leaf stage were infested prior to treatment by placing heavily infested leaves from the main colony on top of the treatment plants. Aphids were allowed to transfer overnight to accomplish an infestation of 30-50 aphids per plant and the host leaves were removed. The infested plants were then sprayed by an automated electrostatic plant sprayer equipped with an atomizing spray nozzle. The plants were dried in the sprayer fume hood, removed, and then maintained in a growth room under fluorescent lighting in a 24-hr photoperiod at about 25° C. and about 20-40% relative humidity. Aphid mortality on the treated plants, relative to mortality on untreated control plants, was determined after 5 days.

CC(C)c1ccccc1N1CCCSC1=NN=Cc1ccc2c(ccc3c2ncn3-c2ccc(OC(F)(F)F)cc2)c1 (stereo in doubt) [C-55, (Z)-3-(2-isopropylphenyl)-2-((E)-((3-(4-(trifluoromethoxy)phenyl)-3H-naphtho[1,2-d]imidazol-7-yl)methylene)hydrazono)-1,3-thiazinane]
≥ 75%: mortality at 500 ppm [1] | mortality at 800 ppm [2] | mortality at 300 ppm [3] | mortality at 800 ppm [4] | mortality at 800 ppm [5] | mortality at 300 ppm [6] | mortality at 800 ppm [7] | mortality at 500 ppm [8]

CCc1ccccc1NC(=S)N/N=C/c1ccc2c(c1)CCc1c-2cnn1-c1ccc(OC(F)(F)F)cc1 [C-19, 1-(2-ethylphenyl)-3-[[3-[4-(trifluoromethoxy)phenyl]-5,8-dihydro-4H-benzo[e]indazol-7-ylidene]methylimino]thiourea]
≥ 75%: mortality at 300 ppm [3]

FC(F)(F)Oc1ccc(-n2cnc3c4ccc(/C=N/NC(=S)Nc5ccccc5C(F)(F)F)cc4ccc32)cc1 [C-24, 1-[[3-[4-(trifluoromethoxy)phenyl]-9aH-benzo[e]benzimidazol-7-ylidene]methylimino]-3-[2-(trifluoromethyl)phenyl]isothiourea]
≥ 75%: mortality at 500 ppm [1] | mortality at 800 ppm [2] | mortality at 300 ppm [3] | mortality at 800 ppm [4] | mortality at 500 ppm [8]

CS/C(=N\N=C\c1ccc2c(ccc3c2ncn3-c2ccc(OC(F)(F)F)cc2)c1)Nc1ccccc1C(C)C [C-52, (1Z,N′E)-methyl N-2-isopropylphenyl-N′-((3-(4-(trifluoromethoxy)phenyl)-3H-naphtho[1,2-d]imidazol-7-yl)methylene)carbamohydrazonothioate]
≥ 75%: mortality at 500 ppm [1] | mortality at 800 ppm [2] | mortality at 300 ppm [3] | mortality at 800 ppm [4] | mortality at 800 ppm [5] | mortality at 800 ppm [9] | mortality at 300 ppm [6] | mortality at 500 ppm [8]

C/C(=N\NC(=S)Nc1c(C)cccc1C)c1ccc2c(ccc3c2ncn3-c2ccc(OC(F)(F)F)cc2)c1 [C-58, 1-(2,6-dimethylphenyl)-3-[(E)-1-[3-[4-(trifluoromethoxy)phenyl]benzo[e]benzimidazol-7-yl]ethylideneamino]thiourea]
≥ 75%: mortality at 500 ppm [1] | mortality at 800 ppm [2] | mortality at 800 ppm [4] | mortality at 800 ppm [5] | mortality at 800 ppm [9] | mortality at 300 ppm [6] | mortality at 800 ppm [7] | mortality at 500 ppm [8]

CCc1cccc(CC)c1NC(=S)N/N=C/c1ccc2c(ccc3c2ncn3-c2ccc(OC(F)(F)F)cc2)c1 [C-70, 1-(2,6-diethylphenyl)-3-[(E)-[3-[4-(trifluoromethoxy)phenyl]benzo[e]benzimidazol-7-yl]methyleneamino] thiourea]
≥ 75%: mortality at 500 ppm [1] | mortality at 800 ppm [2] | mortality at 300 ppm [3] | mortality at 800 ppm [5] | mortality at 800 ppm [9] | mortality at 300 ppm [6] | mortality at 800 ppm [7] | mortality at 500 ppm [8]

Cc1cccc(Cl)c1NC(=S)N/N=C/c1ccc2c(ccc3c2ncn3-c2ccc(SC(F)(F)F)cc2)c1 [C-74, 1-(2-chloro-6-methyl-phenyl)-3-[(E)-[3-[4-(trifluoromethylsulfanyl)phenyl]benzo[e]benzimidazol-7-yl]methyleneamino]thiourea]
≥ 75%: mortality at 500 ppm [1] | mortality at 800 ppm [2] | mortality at 300 ppm [3] | mortality at 800 ppm [4] | mortality at 800 ppm [5] | mortality at 300 ppm [6] | mortality at 800 ppm [7]

CCc1cccc(C)c1NC(=S)N/N=C/c1ccc2c(ccc3c2ncn3-c2ccc(C(F)(F)F)cc2)c1 [C-78, 1-(2-ethyl-6-methyl-phenyl)-3-[(E)-[3-[4-(trifluoromethyl)phenyl]benzo[e]benzimidazol-7-yl]methyleneamino] thiourea]
≥ 75%: mortality at 500 ppm [1] | mortality at 800 ppm [2] | mortality at 300 ppm [3] | mortality at 800 ppm [4] | mortality at 800 ppm [5] | mortality at 300 ppm [6] | mortality at 500 ppm [8]

Cc1cccc(Cl)c1NC(=S)N/N=C/c1ccc2c(ccc3c2ncn3-c2ccc(OC(F)(F)F)cc2)c1 [C-79, 1-(2-chloro-6-methyl-phenyl)-3-[(E)-[3-[4-(trifluoromethoxy)phenyl]benzo[e]benzimidazol-7-yl]methyleneamino] thiourea]
≥ 75%: mortality at 500 ppm [1] | mortality at 800 ppm [2] | mortality at 800 ppm [4] | mortality at 800 ppm [5] | mortality at 800 ppm [9] | mortality at 300 ppm [6] | mortality at 800 ppm [7] | mortality at 500 ppm [8]

O=C(N/N=C/c1ccc2c(ccc3c2ncn3-c2ccc(OC(F)(F)F)cc2)c1)Nc1ccccc1Cl [C-100, 3-(2-chlorophenyl)-1-[[3-[4-(trifluoromethoxy)phenyl]-8H-benzo[e]benzimidazol-7-ylidene]methylimino] isourea]
≥ 75%: mortality at 300 ppm [3]

CSc1cccc(C)c1NC(=S)N/N=C/c1ccc2c(ccc3c2ncn3-c2ccc(OC(F)(F)F)cc2)c1 [C-103, 1-(2-methyl-6-methylsulfanyl-phenyl)-3-[(E)-[3-[4-(trifluoromethoxy)phenyl]benzo[e]benzimidazol-7-yl]methyleneamino]thiourea]
≥ 75%: mortality at 500 ppm [1] | mortality at 800 ppm [2] | mortality at 300 ppm [3] | mortality at 800 ppm [4] | mortality at 800 ppm [5] | mortality at 300 ppm [6] | mortality at 800 ppm [7] | mortality at 500 ppm [8]

Cc1cccc(C)c1NC(=S)N/N=C/c1ccc2c(ccc3c2ncn3-c2ccc(C(F)(F)F)cn2)c1 [C-109, 1-(2,6-dimethylphenyl)-3-[(E)-[3-[5-(trifluoromethyl)-2-pyridyl]benzo[e]benzimidazol-7-yl]methyleneamino] thiourea]
≥ 75%: mortality at 500 ppm [1] | mortality at 800 ppm [2] | mortality at 300 ppm [3] | mortality at 800 ppm [4] | mortality at 800 ppm [5] | mortality at 800 ppm [9] | mortality at 800 ppm [7]
